According to patent publication US20250213700A1, “COMPOUNDS, COMPOSITIONS, AND METHODS FOR CELL-SPECIFIC PHARMACOLOGY” (Duke University, priority 2022, published 2025):

Key:
endogenous GABAARs = assay: all-optical assay of GABAAR antagonism in primary neuronal culture; format: cell-based, rat; details: ddHTP vs +HTP cells, 15 min, 15 uM GABA
Protocol: Cultured neuronal assays: Preparation of hippocampal cultures: Mixed glial and neuronal cultures were prepared from the hippocampus of postnatal day 0 to 1 Sprague-Dawley rat pups. Separate pools of dissociated cells were transfected via electroporation (LONZA, V4SP-3096) with plasmid constructs, and depending on assay directives, either plated individually or mixed with a different pool of electroporated cells after a 10 min recovery period. Cells were cultured on coverslips (Deckglaser) pre-treated with high molecular weight poly-D-lysine (Sigma, P7405; 0.05 mg/mL) in 24-well plates and maintained in NbActiv4 (BrainBits, Nb4-500) at 37 C, 5% CO2. Media was changed by half at DIV3 or 4 and then weekly thereafter; experiments were performed between DIV16 to DIV18.
Gabazine: Dissociated neurons were electroporated with constructs and cultured for 2 weeks. The assay was performed in the same BASE solution as described above, but with the addition of synaptic blockers CPP (NMDAR antagonist; Tocris) and NBQX (AMPAR antagonist; Abcam, ab120046) to isolate GABAR activity, and a small amount of GABA (GABAR agonist; Sigma) to ensure GABAR activity (=GABAR-BASE). […] Instead, a high dose of regular gabazine was used to completely silence any cells that may not have had realized full antagonism by the end of the assay. Imaging alignment, proof-reading and analysis were performed in a similar fashion to the AMPAR assay using MatLab.
It was next focused on blocking the GABAAR, a ubiquitous transducer of synaptic inhibition. […] The structure-activity literature of gabazine, a selective GABAAR antagonist, was explored. The core gabazine pharmacophore includes of a 3-amino, 6-phenoxy-pyridazine ring, with GABA embedded in the 2-position (2 butyric acid). Based on historical, low-potency predecessors of gabazine, a longer GABA moiety (2 pentanoic acid), and methyl substituents (e.g., 5-CH3) were explored (FIG. 2F). For each variant, the 6-phenoxy moiety was modified to make a gabazinealkyne module, which was click-conjugated to DART.2. Several variants were made, including gabazine.1^DART.2 (2 butyric acid, 5-H), gabazine.5DART.2 (2 pentanoic acid, 5-H), and gabazine.7DART.2 (2 pentanoic acid, 5-CH3). An all-optical assay of endogenous GABAARs in primary neuronal culture was then developed. […] Excitatory synapses were blocked, such that opto-stimulation with ChR2 became the only source of neural excitation.

GABAAR [1] = assay: cerebellar slice voltage-clamp, tonic GABAAR current in granule cells; format: cell-based, mouse
Text: (§1) (FIG. 4A) Validation of gabazine.1^DART.2 in cerebellar slice. Top: voltage-clamp schematic. Bottom: tonic GABAAR in granule cells expressing ^+HTP or ^ddHTP. […] Data are mean±SEM, cells normalized to baseline. (FIG. 4B) In vivo delivery of gabazine.1^DART.2 to cerebellar granule cells. Top right: schematic of experimental approach, GCaMP6f granule-cell activity obtained in the absence of sensory stimuli. Top left: example field of view, GCaMP6f signal averaged across trials. Bottom: example calcium traces (ΔF/F) in an awake ^+HTP mouse before (baseline) and after (1 μL of 1 μM gabazine.1^DART.2) infusion. (FIG. 4C) In vivo, 1 μL of 1 μM gabazine.1^DART.2 to ^+HTP mice. Color indicates ΔF/F, each row is one cell before (left) and after (right) gabazine.1^DART.2 infusion. […] (FIG. 4D) In vivo, 1 μL of 1 μM gabazine.1^DART.2 to ^ddHTP mice. Format as in panel C. […] (FIG. 4E) Validation of gabazine.7^DART.2 in VTA slice. Top: evoked-IPSC configuration. […] Data are mean±SEM, cells normalized to baseline. […] Data are mean±SEM, normalized to baseline speed of each animal.
Next, the feasibility of using DART.2 for GABAAR antagonism in live mice was explored. […] Whether this sparsity results from low excitatory drive, or high inhibitory GABAAR tone, has been difficult to address with prior tools. For example, one may attempt to reduce inhibition onto granule cells by silencing local GABA-producing neurons [golgi cells]. However, this would disinhibit local excitatory neurons [unipolar brush cells]. Thus the approach would inadvertently elevate excitatory drive onto granule cells, concomitant with the desired goal of reducing their inhibition, confounding interpretation. […] AAV DIO ^+HTPGPI or AAV DIO ^ddHTPGPI were expressed along with GCaMPxx in xxx-Cre mice; 2p. […] Next, in vivo experiments, using two-photon imaging of granule cells were performed.

cerebellar granule cells = assay: in vivo two-photon GCaMP imaging of cerebellar granule cells; set-up: species or system mouse; details: local infusion, 1 μL of 1 μM
Text: as §1
Next, the feasibility of using DART.2 for GABAAR antagonism in live mice was explored. […] Whether this sparsity results from low excitatory drive, or high inhibitory GABAAR tone, has been difficult to address with prior tools. […]

GABAAR [2] = assay: whole-mount retina, GABAAR-mediated evoked IPSC in retinal ganglion cells; format: cell-based, mouse; details: 300 nM, 15 min
Protocol: (§2) (FIG. 6A) Viral strategy (top panel). […] Experimental overview (second panel from the top to bottom panel). Top: whole retina; synaptic current is evoked (stim) and recorded (voltage-clamp of dTomato+ RGC), with ionic and pharmaceutical conditions chosen to isolate the AMPAR or GABAAR. A 10 min baseline is followed by 15 min application of 300 nM Rx^DART.2+30 nM Alexa^647.1DART.2. […] (FIG. 6B) CMPDA.2^DART.2 (left). Electropositive spacer (PDB 3RNN). […] AMPAR structural model (middle) (composite of PDB 5WEO, 3RNN, and 1FTL). Cylinder depicts cell membrane. […] YM90K.1^DART.2 (right). Structural model (PDB 1FTL). […] (FIG. 6C) diazepam.1^DART.2 (left). Structural model (PDB 6HUP). […] GABAAR (middle) structural model (composite of PDB 6HUP and 6HUK). […] Structural model (PDB 6HUK).
(§3) Preparation of Retina: Mice were intravitreal injected AAV10 HaloTag™-dTomato to eyes. After 8-12 weeks, the mice killed by cervical dislocation. Both eyes were removed and dissected under a stereo-microscope. Retinas were isolated from the eyecups and placed in oxygenated (95% O2/5% CO2) cold-Ames medium (Sigma-Aldrich), supplemented with 21 mM NaHCO3. After the vitreous body was removed, a retina was cut into 3 pieces, leaving each retina piece attached to a filter paper with 2 mm hole by retina ganglion-cell-side-down. The pieces of retina were stored in bubbled Ames solution at room temperature, then transferred to recording chamber with retina ganglion-cell-side-up for recording.
(§4) Whole-cell patch-clamp recording: The brain slices or retinas were perfused with bubbled aCSF at 29-30° C. with a 2 ml/min flow rate. Recordings were made by whole cell patch recording techniques using a Multiclamp 700B amplifier (Molecular Devices, Axon Instruments Inc., Union City, CA). The signals were filtered at 10 KHz and acquired using Digitate 1440A and pClamp 10.7 (Molecular Devices). The recording pipettes (4 MΩ-6 MΩ) were filled with internal solutions. For GABAA receptor-mediated evoked inhibitory postsynaptic currents ([…]) recording, the pipettes filled with Cesium Chloride-based internal solution (in mM) 135 CsCl, 2 MgCl2, 0.5 EGTA, 10 HEPES, 4 Mg-ATP, 0.5 Na-GTP, 10 Na2-phosphocreatine, and QX314 (lidocaine N-ethyl bromide), pH adjusted to 7.3 with CsOH (290 mosm). For AMPA-receptor mediated evoked excitatory postsynaptic currents (eEPSCs) recording, the pipette solution contained (in mM) 130 CsMeS, 1 MgCl2, 0.5 EGTA, 10 HEPES, 4 Mg-ATP, 0.5 Na-GTP, 10 Na2-phosphocreatine, and 4 QX314, pH adjusted to 7.3 with CsOH (290 mosm). For experiment of brain slices and retinas, the eIPSCs or eEPSCs were elicited by electrical stimuli at 0.067 Hz in 0.3-ms duration and 150-300-ρA (60-70% maximum responses) stimulation intensity at a holding potential of −70 mV. The stimulating electrode was placed within 60-100 μm from the recording neuron under voltage-clamp mode. GABA-receptor mediated eIPSCs were isolated in the presence of DNQX ([…] AMPAR antagonist) and AP-V ([…] antagonist) in the bath solution. For AMPA-receptor mediated eEPSCs, added picrotoxin ([…], GABAAR antagonist) and AP-V ([…]) to the bath solution.

AMPAR [3] = assay: positive allosteric modulation of the AMPAR by CMPDA reagents; format: cell-based
Text: To complete the bidirectional ionotropic toolkit, allosteric modulators of the AMPAR were explored. For many pharmaceuticals of this class, including cyclothiazide, two drug molecules are known to bind in close proximity, one on each side of the interface between adjacent ligand-binding domains. Thus, newer pharmaceuticals of this class were focused on, which can span the two binding sites simultaneously, reasoning that it would be easier to accommodate a single tether into the binding interface. In particular, CMPDA (phenyl-1,4-bisalkylsulfonamide) was focused on, owing to its structural simplicity and availability of an experimental atomic structure. […] A synthetic scheme to resynthesize CMPDA while installing a short PEG spacer domain at a point of attachment was devised to allow tether access from the allosteric binding site to free solution. […] Altering the electrostatic properties of the spacer domain was explored. In silico docking and experimental iteration to redesign the electronegative spacer (CCOCCOCC) into a polar neutral spacer (CBNCCCNC) was used, yielding CMPDA.2alkyne, which was converted into the full-length CMPDA.2DART.2.

AMPAR [4] = assay: whole-mount retina, AMPAR-mediated evoked EPSC in retinal ganglion cells; format: cell-based, mouse; details: 300 nM, 15 min
Protocol: as §2, §3, §4

Row | SMILES | DW (t=15 m) (endogenous GABAARs) | tonic GABAAR current, +HTP granule cells (GABAAR [1]; 100 nM) | HTL50 (half-maximal tethering concentration at 15 min) (GABAAR [1]; +HTP cells, tonic GABAAR current, read-out: HTL50 (t=15 m)) | IC50 (GABAAR [1]; read-out: Rx50, ddHTP cells, tonic GABAAR current) | GCaMP signals, ddHTP mice (cerebellar granule cells) | granule cell activity, +HTP mice (cerebellar granule cells) | GABAAR evoked IPSC block, +HTP cells (GABAAR [2]) | GABAAR evoked IPSC, ddHTP cells (GABAAR [2]) | GABAAR evoked IPSC block, +HTP cells (GABAAR [2]; listed as gabazine.1^DART.2) | positive modulation of the AMPAR (AMPAR [3]) | AMPAR evoked EPSC integral (total charge transfer) boost, +HTP cells (AMPAR [4]) | AMPAR evoked EPSC, ddHTP cells (AMPAR [4]) | integrated EPSC charge transfer, +HTP RGCs (AMPAR [4]) | AMPAR evoked EPSC, ddHTP cells (AMPAR [4]; listed as CMPDA.2^DART.2)
1 | COc1cc(CCCCl)ccc1CCOCCNC(=O)c1ccc(CNC(=O)CCOCCOCCOCCOCCOCCOCCOCCOCCOCCOCCOCCOCCOCCOCCOCCOCCOCCOCCOCCOCCOCCOCCOCCOCCOCCOCCOCCOCCOCCOCCOCCOCCOCCOCCOCCOCCn2cc(COCCOCCOCCOCCOCCOCCOCCCCCCOc3ccc(-c4ccc(=N)n(CCCC(=O)O)n4)cc3)nn2)cc1 [gabazine.1DART.2] | 500 | antagonizes the GABAAR in ^+HTP | ~50 nM | ~1 µM | no impact on GCaMP signals | pronounced increase in +HTP granule cell activity | blocked the GABAAR-mediated IPSC | not on ^ddHTP cells | blocked on ^+HTP cells | – | – | – | – | –
2 | COc1cc(CCCCl)ccc1CCOCCNC(=O)c1ccc(CNC(=O)CCOCCOCCOCCOCCOCCOCCOCCOCCOCCOCCOCCOCCOCCOCCOCCOCCOCCOCCOCCOCCOCCOCCOCCOCCOCCOCCOCCOCCOCCOCCOCCOCCOCCOCCOCCOCCn2cc(COCCNCCCNC(=O)CC(CNS(=O)(=O)C(C)C)c3ccc(CCNS(=O)(=O)C(C)C)cc3)nn2)cc1 (stereo not drawn) [CMPDA.2DART.2] | – | – | – | – | – | – | – | – | – | restored the ability of the reagent to bind and produce positive allosterically modulation of the AMPAR | 3 fold | No impact | three-fold increase | not ^ddHTP cells
3 | C#CCOCCOCCOCCOCCOCCOCCC(CNS(=O)(=O)C(C)C)c1ccc(CCNS(=O)(=O)C(C)C)cc1 (stereo not drawn) [CMPDA.1alkyne, N-(2-{4-[23-(propane-2-sulfonamido)-4,7, 10, 13, 16, 19-hexaoxatricos-1-yn-22-yl]phenyl}ethyl)propane-2-sulfonamide] | – | – | – | – | – | – | – | – | – | retained its ability to positively modulate the AMPAR | – | – | – | –
